According to the supplement of paper PMC13207355:
Where a name gives a salt, the structure may show the parent alone.

Assays:
Conditions in all cases: exposure time: 72 h
[1] = system: E28 (patient-derived glioblastoma stem cells of classical subtype); test: phenotypic distance (Euclidean, principal components) from DMSO controls (arbitrary units); higher = stronger morphological change
[2] = system: E34 (patient-derived glioblastoma stem cells of proneural subtype); test: as above
[3] = system: E31 (patient-derived glioblastoma stem cells of proneural subtype); test: as above
[4] = system: E13 (patient-derived glioblastoma stem cells of classical subtype); test: as above
[5] = system: E57 (patient-derived glioblastoma stem cells of mesenchymal subtype); test: as above
[6] = system: E21 (patient-derived glioblastoma stem cells of mesenchymal subtype); test: as above
[7] = system: FT3469 (normal neural stem cell line); test: as above
[8] = system: E28; test: surviving fraction (nuclei count normalised to DMSO); higher = more cells surviving (less toxic)
[9] = system: E34; test: as above
[10] = system: E31; test: as above
[11] = system: E13; test: as above
[12] = system: E57; test: as above
[13] = system: E21; test: as above
[14] = system: FT3469; test: as above
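For phenotypic distance (Euclidean, principal components) from DMSO controls in this document: cell Painting imaging in 384-well plates, CellProfiler features reduced to at least 20 principal components, Euclidean distance versus same-plate DMSO vehicle wells (0.1% v/v), median over six images per well.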
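For surviving fraction (nuclei count normalised to DMSO) in this document: nuclei counted by high-content imaging of Hoechst-stained cells in laminin-coated 384-well plates, relative to 0.1% DMSO vehicle wells, with staurosporine as cell-death control.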

CC(C)NCC(O)c1ccc(O)c(O)c1 (stereo unspecified) [Isoproterenol hydrochloride]
Conditions | phenotypic distance | surviving fraction
[1], 4.1 nM | 1.26 | –
[1], 12.3 nM | 0.749 | –
[1], 37 nM | 0.577 | –
[1], 111.1 nM | 0.661 | –
[1], 333.3 nM | 0.903 | –
[1], 1000 nM | 0.652 | –
[1], 3000 nM | 0.87 | –
[2], 4.1 nM | 0.806 | –
[2], 12.3 nM | 0.933 | –
[2], 37 nM | 0.861 | –
[2], 111.1 nM | 0.633 | –
[2], 333.3 nM | 0.9 | –
[2], 1000 nM | 0.781 | –
[2], 3000 nM | 0.963 | –
[3], 4.1 nM | 3.31 | –
[3], 12.3 nM | 0.604 | –
[3], 37 nM | 0.63 | –
[3], 111.1 nM | 0.645 | –
[3], 333.3 nM | 0.706 | –
[3], 1000 nM | 0.745 | –
[3], 3000 nM | 0.88 | –
[4], 4.1 nM | 1.71 | –
[4], 12.3 nM | 1.34 | –
[4], 37 nM | 1.11 | –
[4], 111.1 nM | 0.927 | –
[4], 333.3 nM | 0.863 | –
[4], 1000 nM | 0.656 | –
[4], 3000 nM | 0.895 | –
[5], 4.1 nM | 0.878 | –
[5], 12.3 nM | 0.696 | –
[5], 37 nM | 0.871 | –
[5], 111.1 nM | 1.09 | –
[5], 333.3 nM | 1.1 | –
[5], 1000 nM | 3.04 | –
[5], 3000 nM | 1.28 | –
[6], 4.1 nM | 1.03 | –
[6], 12.3 nM | 0.961 | –
[6], 37 nM | 0.559 | –
[6], 111.1 nM | 0.37 | –
[6], 333.3 nM | 0.707 | –
[6], 1000 nM | 0.442 | –
[6], 3000 nM | 0.786 | –
[7], 4.1 nM | 1.05 | –
[7], 12.3 nM | 0.977 | –
[7], 37 nM | 1.54 | –
[7], 111.1 nM | 0.756 | –
[7], 333.3 nM | 1.08 | –
[7], 1000 nM | 0.765 | –
[7], 3000 nM | 1.18 | –
[8], 4.1 nM | – | 1.14
[8], 12.3 nM | – | 1.19
[8], 37 nM | – | 1.05
[8], 111.1 nM | – | 1.09
[8], 333.3 nM | – | 1.17
[8], 1000 nM | – | 1.1
[8], 3000 nM | – | 1.22
[9], 4.1 nM | – | 1.03
[9], 12.3 nM | – | 1
[9], 37 nM | – | 1.13
[9], 111.1 nM | – | 1.09
[9], 333.3 nM | – | 1.15
[9], 1000 nM | – | 1.11
[9], 3000 nM | – | 1.11
[10], 4.1 nM | – | 0.999
[10], 12.3 nM | – | 1.05
[10], 37 nM | – | 0.967
[10], 111.1 nM | – | 0.989
[10], 333.3 nM | – | 1.02
[10], 1000 nM | – | 1.27
[10], 3000 nM | – | 1.24
[11], 4.1 nM | – | 0.935
[11], 12.3 nM | – | 0.961
[11], 37 nM | – | 1.01
[11], 111.1 nM | – | 0.949
[11], 333.3 nM | – | 0.974
[11], 1000 nM | – | 0.842
[11], 3000 nM | – | 1
[12], 4.1 nM | – | 1.01
[12], 12.3 nM | – | 0.941
[12], 37 nM | – | 0.999
[12], 111.1 nM | – | 0.974
[12], 333.3 nM | – | 1.12
[12], 1000 nM | – | 1.14
[12], 3000 nM | – | 1.11
[13], 4.1 nM | – | 0.983
[13], 12.3 nM | – | 0.836
[13], 37 nM | – | 0.946
[13], 111.1 nM | – | 0.954
[13], 333.3 nM | – | 0.957
[13], 1000 nM | – | 1.03
[13], 3000 nM | – | 0.989
[14], 4.1 nM | – | 0.975
[14], 12.3 nM | – | 1.04
[14], 37 nM | – | 0.928
[14], 111.1 nM | – | 1.15
[14], 333.3 nM | – | 1.18
[14], 1000 nM | – | 1.04
[14], 3000 nM | – | 1.1

CCC(C)n1ncn(-c2ccc(N3CCN(c4ccc(OCC5COC(Cn6cncn6)(c6ccc(Cl)cc6Cl)O5)cc4)CC3)cc2)c1=O (stereo unspecified) [Itraconazole]
Conditions | phenotypic distance | surviving fraction
[1], 4.1 nM | 0.725 | –
[1], 12.3 nM | 0.689 | –
[1], 37 nM | 0.685 | –
[1], 111.1 nM | 0.54 | –
[1], 333.3 nM | 0.778 | –
[1], 1000 nM | 1.01 | –
[1], 3000 nM | 1.89 | –
[2], 4.1 nM | 0.775 | –
[2], 12.3 nM | 0.644 | –
[2], 37 nM | 0.488 | –
[2], 111.1 nM | 0.692 | –
[2], 333.3 nM | 0.901 | –
[2], 1000 nM | 1.17 | –
[2], 3000 nM | 4 | –
[3], 4.1 nM | 0.564 | –
[3], 12.3 nM | 0.769 | –
[3], 37 nM | 0.273 | –
[3], 111.1 nM | 0.748 | –
[3], 333.3 nM | 0.758 | –
[3], 1000 nM | 1.32 | –
[3], 3000 nM | 5 | –
[4], 4.1 nM | 0.693 | –
[4], 12.3 nM | 0.503 | –
[4], 37 nM | 1.03 | –
[4], 111.1 nM | 0.709 | –
[4], 333.3 nM | 0.981 | –
[4], 1000 nM | 2.73 | –
[4], 3000 nM | 4.62 | –
[5], 4.1 nM | 0.542 | –
[5], 12.3 nM | 0.297 | –
[5], 37 nM | 0.803 | –
[5], 111.1 nM | 0.874 | –
[5], 333.3 nM | 0.482 | –
[5], 1000 nM | 2.51 | –
[5], 3000 nM | 6.42 | –
[6], 4.1 nM | 0.987 | –
[6], 12.3 nM | 0.508 | –
[6], 37 nM | 0.932 | –
[6], 111.1 nM | 0.917 | –
[6], 333.3 nM | 0.975 | –
[6], 1000 nM | 3.76 | –
[6], 3000 nM | 7.08 | –
[7], 4.1 nM | 0.966 | –
[7], 12.3 nM | 0.554 | –
[7], 37 nM | 1.33 | –
[7], 111.1 nM | 3.66 | –
[7], 333.3 nM | 0.753 | –
[7], 1000 nM | 1.14 | –
[7], 3000 nM | 3.43 | –
[8], 4.1 nM | – | 1.1
[8], 12.3 nM | – | 1.07
[8], 37 nM | – | 1.18
[8], 111.1 nM | – | 0.888
[8], 333.3 nM | – | 1.07
[8], 1000 nM | – | 0.897
[8], 3000 nM | – | 0.735
[9], 4.1 nM | – | 0.814
[9], 12.3 nM | – | 0.933
[9], 37 nM | – | 0.922
[9], 111.1 nM | – | 1.02
[9], 333.3 nM | – | 1.04
[9], 1000 nM | – | 0.831
[9], 3000 nM | – | 0.701
[10], 4.1 nM | – | 1.13
[10], 12.3 nM | – | 1.12
[10], 37 nM | – | 1.1
[10], 111.1 nM | – | 1.03
[10], 333.3 nM | – | 1.08
[10], 1000 nM | – | 1.09
[10], 3000 nM | – | 0.996
[11], 4.1 nM | – | 0.869
[11], 12.3 nM | – | 1.07
[11], 37 nM | – | 0.889
[11], 111.1 nM | – | 1.02
[11], 333.3 nM | – | 0.966
[11], 1000 nM | – | 0.801
[11], 3000 nM | – | 0.653
[12], 4.1 nM | – | 1.05
[12], 12.3 nM | – | 1.03
[12], 37 nM | – | 1.02
[12], 111.1 nM | – | 1.08
[12], 333.3 nM | – | 1.07
[12], 1000 nM | – | 0.999
[12], 3000 nM | – | 0.558
[13], 4.1 nM | – | 1.03
[13], 12.3 nM | – | 1.02
[13], 37 nM | – | 1.01
[13], 111.1 nM | – | 0.979
[13], 333.3 nM | – | 1.05
[13], 1000 nM | – | 0.79
[13], 3000 nM | – | 0.532
[14], 4.1 nM | – | 0.763
[14], 12.3 nM | – | 1.05
[14], 37 nM | – | 1.03
[14], 111.1 nM | – | 1.06
[14], 333.3 nM | – | 0.993
[14], 1000 nM | – | 0.895
[14], 3000 nM | – | 0.53
